pKi: −log10 of the molar value.
Target: Human immunodeficiency virus type 1 protease (Human immunodeficiency virus 1, UniProt Q72874)
Assay: ChEBML_159632
Experimental: Inhibitory concentration required to inhibit HIV-1 protease was determined

pKi	Compound
4.52	N=C=C(C(=O)[C@H](Cc1ccccc1)NC(=O)OCc1ccccc1)c1ccc([N+](=O)[O-])cc1
4.52	CC(C)(C)OC(=O)N[C@H](C(=O)C(=C=N)c1ccc([N+](=O)[O-])cc1)C(=O)C(N)c1ccccc1 (some centres not stated)

Reference: BindingDB's records for doi:10.1016/S0960-894X(00)80308-X (1993)
